Experimental data reported in patent publication EP0663826B1, “AMINO ACIDS CONTAINING PARENTERAL FORMULATIONS FOR THE TREATMENT OF HYPOTENSION AND RELATED PATHOLOGIES” (BOARD OF REGENTS THE UNIVERSITY OF TEXAS SYSTEM, priority 1991, dated 1993).

Key:
[1] = test system: IL-1-Induced Hypotension in Dogs; test: IL-1-induced hypotension in dogs; format: in vivo; details: for MAP after arginine administration: then L-arginine 400 mg/kg
Experimental: • FIGURE 1 - Reversal of hypotension associated with the administration of IL-1 to dogs. The tracing shown is a representative experiment that was repeated four times. Each dog was anesthetized and […] as described herein, and baseline cardiovascular data were monitored for 30 minutes. IL-1 was dissolved in phosphate-buffered saline (pH 7.4) containing 1 mg/ml of dog albumin, and the resulting solution was infused intravenously for three minutes to deliver a dose of 50 µg/kg. MAP was continuously monitored; when a stable nadir was reached and maintained for more than 10 minutes or when MAP dropped below 50 mm Hg, NAA (20 mg/kg in 10 ml phosphate-buffered saline) was administered by intravenous infusion for 30 seconds. Sixty minutes after MAP was restored to baseline or higher values, L-arginine (400 mg/kg in 20 ml phosphate-buffered saline) was administered by slow intravenous infusion for 5 minutes. Anesthetized dogs given IL-1 (50 µg/kg) developed a progressive, moderately severe hypotension, with MAP decreasing from a baseline of 111 +/- 7 mm Hg to 80 +/- 2 mm Hg within about 3 hours. Hypotension was rapidly reversed by the intravenous administration of a single bolus dose of NAA (20 mg/kg, 88 umol/kg), with MAP increasing by from 46 +/- 9 mm Hg (58%_ to 125 +/- 8 mm Hg. • FIGURES 2A, 2B, 2C - Inhibition of IL-1-activated NO· production by N^ω-substituted arginine analogues. Figure 2A: Comparison of nitrite synthesis inhibition in smooth muscle cells by the L-isomers of NAA, NMA, and NNA and by the D-isomer of NMA. Figure 2B: Concentration dependence of nitrite synthesis inhibition in smooth muscle cells by NAA as a function of different L-arginine concentration in the culture medium. Confluent monolayers of smooth muscle cells in 96-well microtiter plates were treated with a combination of 100 ng/ml IL-1 and 50 ng/ml IFN-γ for 24 hours. Cells were then washed with Hanks' balanced salt solution, and fresh medium containing the indicated concentration of L-arginine was added. Points indicate means ± SD of nitrite production, expressed as percent of control, during a 16-hour exposure to arginine analogues (n = 3-4). Figure 2C: Effect of NAA on smooth muscle cell NO· synthase. Cytosol from cytokine-induced smooth muscle cells (∼2 µg protein) was incubated with 1 mM L-arginine, 0.5 mM NADPH, 1 mM dithiothreitol, 10 µM flavin-adenine dinucleotide, 10 µM tetrahydrobiopterin, and 0.1 U/ml dihydropteridine reductase in a total volume of 100 µL. The time course of Fe^2+-myoglobin oxidation was measured in the absence (control) or presence of 300 µM NAA (+NAA). […] FIGURE A: Time course of nitrite synthesis elicited by 40 ng/mL IL-1 alone (open circles) and by IL-1 in the presence of 50 ng/ml IFN-γ (open triangles). […] Inclusion of IL-1 receptor antagonist (40 µg/mL; filled symbols) in the culture medium inhibited nitrite production stimulated by both IL-1 and IL-1 plus IFN-γ. FIGURE B: IL-1 concentration dependence for smooth muscle cell nitrite production. Data points indicate nitrite produced during a 29-hour incubation with the indicated concentration of IL-1 alone (open circles) or in the presence of IL-1 plus 50 ng/mL IFN-γ (open triangles). All values are means ± SD for nitrite production by confluent smooth muscle cell monolayers grown in 96-well microtiter plates (60-80 X 10^3 cells per well; n = 3-4).
Experiments were conducted on healthy mongrel dogs that were free of microfilaria and weighed 25-28 kg each. […]

[2] = test system: hypotension associated with the administration of TNF in the dog; test: TNF-induced hypotension in the dog; format: in vivo, dogs; details: L-arginine to previously untreated normotensive dogs
Experimental: Recombinant human TNF, specific activity 2 x 10^7 units/mg, was from the Dainippon Chemical Corporation, Tokyo, Japan. TNF was administered at a dose of 10 µg//kg in a volume of 10 ml of phosphate buffered saline containing 17 mg/ml of dog albumin. […] Arginine was obtained from Sigma Chemical Company, St. Louis, Mo.
Four conditioned mongrel dogs, 2 males and 2 females, weighing 28 to 30 kg, were studied. Care of the animals were in accordance with the recommendations of the American Association for Accreditation of Laboratory Animals [DHEW(DHHS) publication no. (NIH) 78-23, revised, 1978]. On the day of the experiment, the dogs were fasted overnight. They were anesthetized with phenobarbital (25 mg/kg). The animals were then intubated orally with a #10 fr. endotracheal tube and ventilated with a Harvard pump ventilator at a rate of 14 breaths per minute and a tidal volume of 15 ml/kg. An arterial line was percutaneously placed in the femoral artery on the day of the experiment.
Mean (electronic) and phasic systemic arterial pressures (SAP) were continuously recorded on a Hewlett-Packard recording system (model 7758B) using strain gauge manometers (Hewlett-Packard model 1290A) which were connected to the arterial line. Heart rate (HR) was determined from an EKG tracing and continuously recorded on the Hewlett-Packard recording system. Oxyhemoglobin saturation (SaO2) was obtained using a pulse oximeter (BIOX 111, Boulder, CO). Continuous time-series records of SAP, HR, and SaO2 were obtained using a Lab Master analog-to-digital convertor (16 channel, 12 bit, 30 kHz; Scientific Solutions, Inc.) sampling at 55 Hz and storing the 6 sec averages on a magnetic disk.

Q: With `N=C(N)NCCC[C@H](N)C(=O)O` [L-arginine] as the compound, how does the “average decrease in systemic vascular resistance following arginine” value ([1]; IL-1-treated animals given NAA, then arginine) read?
A: 61%

Q: And the “MAP after arginine administration” value ([1]; IL-1-treated dogs given NAA)?
A: 66 ± 27 mm Hg

Q: And the “MAP after arginine administration” value ([1]; control dogs given NAA)?
A: essentially at baseline levels

Q: What about the “effect on blood pressure” value [2] of the same compound?
A: not affected
